Experimental data as given in paper PMC3854790, “CRIS—A Novel cAMP-Binding Protein Controlling Spermiogenesis and the Development of Flagellar Bending” (PLoS Genetics, 2013).

Target: T1, mCRIS CNBD (cit-mCNBD-cer FRET sensor) (Mus musculus, UniProt Q9D5U8)
T1 construct: gene Cnbd2; CNBD, aa 202-353 of mCRIS cDNA from mouse testis; citrine at N terminus, cerulean-His10 at C terminus (also printed cer-mCNBD-cit); expressed in CHO cells
Experiment: intramolecular FRET (cerulean/citrine ratio), live-cell imaging
Type: cell-based
Details: 3 mM 8-Br-cAMP perfused on CHO cells, 10 min

T1 sequence (Q9D5U8 202-353): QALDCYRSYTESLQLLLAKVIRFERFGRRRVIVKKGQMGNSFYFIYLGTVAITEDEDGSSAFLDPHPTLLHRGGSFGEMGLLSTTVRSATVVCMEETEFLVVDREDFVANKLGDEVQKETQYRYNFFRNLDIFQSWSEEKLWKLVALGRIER

SMILES: Nc1ncnc2c1nc(Br)n2[C@@H]1O[C@@H]2COP(=O)(O)O[C@H]2[C@H]1O [8-Br-cAMP]
- change in FRET (normalized emission ratio): Addition of 8-Br-cAMP, a membrane-permeable cAMP analogue, or NKH477, an activator of adenylyl cyclases, changed
